Laboratory results taken from ChEMBL document CHEMBL1201862, “PubChem BioAssay data set” (2004).
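The compound was tested at five concentrations on cells cultured in 96-well plates, with a 48-hour exposure period. At the GI50, growth is halved.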 Active and inactive are the calls of the source. No stated cut-off is given here; in the data, active = GI50 up to about 1.1 µM and inactive = higher.

Key:
Test in all cases: inhibition of tumour cell growth, NCI panel, 48 h
SK-MEL-28 = test system: SK-MEL-28
HOP-18 = test system: HOP-18
A498 = test system: A498
SK-MEL-5 = test system: SK-MEL-5
OVCAR-5 = test system: OVCAR-5
LOX IMVI = test system: LOX IMVI
HT-29 = test system: HT-29
SF-295 = test system: SF-295
UACC-62 = test system: UACC-62
SF-539 = test system: SF-539
A549 = test system: A549
SW-620 = test system: SW-620
RPMI-8226 = test system: RPMI-8226
OVCAR-8 = test system: OVCAR-8
NCI-H460 = test system: NCI-H460
M14 = test system: M14
NCI-H23 = test system: NCI-H23
SK-MEL-2 = test system: SK-MEL-2

Measured: GI50

COC(=O)C1C=CCC2CCCCC21N1CCCC1 (stereo unspecified)
inactive: SK-MEL-28 98.9 µM | HOP-18 > 100 µM | A498 > 100 µM | SK-MEL-5 84.3 µM | OVCAR-5 > 100 µM | LOX IMVI > 100 µM | HT-29 48.1 µM | SF-295 > 100 µM | UACC-62 > 100 µM | SF-539 > 100 µM | A549 71.8 µM | SW-620 83.6 µM | RPMI-8226 42.7 µM | OVCAR-8 59.4 µM | NCI-H460 55.2 µM | M14 > 100 µM

O=[N+]([O-])c1ccc(/C=N/C2CCCCC2)cc1
inactive: SK-MEL-28 > 100 µM | NCI-H23 > 100 µM | HOP-18 > 100 µM | SK-MEL-2 > 100 µM | A498 > 100 µM | SK-MEL-5 > 100 µM | OVCAR-5 > 100 µM | LOX IMVI > 100 µM | HT-29 > 100 µM | SF-295 > 100 µM | UACC-62 > 100 µM | SF-539 > 100 µM | A549 > 100 µM | SW-620 > 100 µM | OVCAR-8 > 100 µM | NCI-H460 > 100 µM | M14 > 100 µM

COC(=O)C1CCc2c1c(=O)n1c([nH]c3ccccc31)c2C#N (stereo unspecified)
inactive: SK-MEL-28 > 100 µM | NCI-H23 > 100 µM | HOP-18 2.36 µM | SK-MEL-2 > 100 µM | A498 > 100 µM | SK-MEL-5 > 100 µM | OVCAR-5 > 100 µM | LOX IMVI > 100 µM | HT-29 > 100 µM | SF-295 > 100 µM | UACC-62 > 100 µM | SF-539 > 100 µM | A549 > 100 µM | SW-620 > 100 µM | RPMI-8226 > 100 µM | OVCAR-8 > 100 µM | NCI-H460 > 100 µM | M14 > 100 µM

COc1ccc2c(c1)c1c3n2CCNN=C3CCC1
inactive: SK-MEL-28 > 100 µM | NCI-H23 > 62.8 µM | HOP-18 > 100 µM | SK-MEL-2 > 100 µM | A498 > 100 µM | SK-MEL-5 > 100 µM | OVCAR-5 > 57.4 µM | LOX IMVI > 64.6 µM | HT-29 > 100 µM | SF-295 > 100 µM | UACC-62 60.4 µM | SF-539 > 77.4 µM | A549 > 83.8 µM | SW-620 > 100 µM | RPMI-8226 29.4 µM | OVCAR-8 > 81.1 µM | NCI-H460 > 100 µM | M14 > 100 µM

CC(C)NC(C)Cc1ccccc1 (stereo unspecified)
inactive: SK-MEL-28 > 100 µM | NCI-H23 > 100 µM | HOP-18 > 100 µM | SK-MEL-2 > 100 µM | A498 > 100 µM | SK-MEL-5 > 100 µM | OVCAR-5 > 100 µM | LOX IMVI > 100 µM | HT-29 > 100 µM | SF-295 > 100 µM | UACC-62 > 100 µM | SF-539 > 100 µM | A549 > 100 µM | SW-620 > 100 µM | RPMI-8226 > 100 µM | OVCAR-8 > 100 µM | NCI-H460 > 100 µM | M14 > 100 µM

CC(C)(C)c1ccc(OC2CCO2)cc1 (stereo unspecified)
inactive: SK-MEL-28 98.6 µM | NCI-H23 55.5 µM | HOP-18 > 100 µM | A498 43.2 µM | SK-MEL-5 36.3 µM | OVCAR-5 32.7 µM | HT-29 23.1 µM | SF-295 46.9 µM | UACC-62 24 µM | SF-539 37.6 µM | A549 61.2 µM | SW-620 17.1 µM | RPMI-8226 22.1 µM | OVCAR-8 38.6 µM | NCI-H460 24.3 µM | M14 42.6 µM

COc1cc(/C=C\c2ccccn2)cc(OC)c1OC
inactive: SK-MEL-28 > 100 µM | NCI-H23 > 100 µM | HOP-18 > 100 µM | A498 78.5 µM | SK-MEL-5 57.5 µM | OVCAR-5 > 100 µM | LOX IMVI 64 µM | HT-29 46.3 µM | SF-295 > 100 µM | UACC-62 60 µM | SF-539 > 100 µM | A549 85.7 µM | SW-620 41.8 µM | RPMI-8226 30.6 µM | OVCAR-8 > 100 µM | NCI-H460 > 100 µM | M14 55.6 µM

Oc1cc(C2OCCCO2)cc(O)c1O
inactive: SK-MEL-28 > 100 µM | NCI-H23 > 100 µM | HOP-18 > 100 µM | SK-MEL-2 > 100 µM | A498 > 100 µM | SK-MEL-5 > 100 µM | OVCAR-5 > 100 µM | HT-29 > 100 µM | SF-295 > 100 µM | UACC-62 > 100 µM | SF-539 > 100 µM | A549 > 100 µM | SW-620 > 100 µM | RPMI-8226 > 100 µM | OVCAR-8 > 100 µM | NCI-H460 > 100 µM | M14 > 100 µM

CCOC(=O)C1=C(Nc2ccc(Br)cc2)OC/C1=N\NC(=O)c1ccccc1O
inactive: SK-MEL-28 > 81.3 µM | NCI-H23 6.52 µM | HOP-18 70.5 µM | SK-MEL-2 15.1 µM | A498 > 47.3 µM | SK-MEL-5 49.7 µM | OVCAR-5 46.1 µM | LOX IMVI 5.37 µM | HT-29 40.4 µM | SF-295 14.2 µM | UACC-62 2.67 µM | SF-539 11.2 µM | A549 4.06 µM | SW-620 23 µM | RPMI-8226 15 µM | OVCAR-8 13.1 µM | NCI-H460 12.9 µM | M14 23.5 µM

CCOC(=O)NN(C(=O)OCC)C(C(=O)c1ccc(Cl)cc1)=C1NCCN1
inactive: SK-MEL-28 > 100 µM | NCI-H23 > 100 µM | HOP-18 > 100 µM | SK-MEL-2 > 100 µM | A498 > 100 µM | SK-MEL-5 > 100 µM | OVCAR-5 > 100 µM | LOX IMVI > 100 µM | HT-29 > 100 µM | SF-295 > 100 µM | UACC-62 > 100 µM | SF-539 > 100 µM | A549 > 100 µM | SW-620 > 100 µM | OVCAR-8 > 100 µM | NCI-H460 > 100 µM | M14 > 100 µM

O=C(O)c1ccc(S(=O)(=O)c2ccccc2)c([N+](=O)[O-])c1
inactive: SK-MEL-28 > 100 µM | NCI-H23 > 100 µM | HOP-18 > 100 µM | SK-MEL-2 > 100 µM | A498 > 100 µM | SK-MEL-5 > 100 µM | OVCAR-5 > 100 µM | LOX IMVI > 100 µM | HT-29 > 100 µM | SF-295 > 100 µM | UACC-62 > 100 µM | SF-539 > 100 µM | A549 > 100 µM | SW-620 > 100 µM | RPMI-8226 > 100 µM | NCI-H460 > 100 µM | M14 > 100 µM

O=C(NC1C=Nc2ccccc2NC1=O)c1ccccc1Cl (stereo unspecified)
inactive: SK-MEL-28 > 100 µM | NCI-H23 43.9 µM | HOP-18 48 µM | SK-MEL-2 36.9 µM | A498 28.8 µM | SK-MEL-5 45.8 µM | OVCAR-5 > 100 µM | LOX IMVI 18.2 µM | HT-29 55.7 µM | SF-295 57.1 µM | UACC-62 33.6 µM | SF-539 > 100 µM | A549 48 µM | SW-620 13.6 µM | OVCAR-8 43 µM | NCI-H460 44 µM | M14 80.5 µM
